Test [1] in a line: Serum creatine kinase (CK) around three days of high-intensity exercise. The format is in vivo, human. Conditions: for CK (u): Day 1 to Day 3, 10 g/day, mean ± SD; for Creatine kinase levels, average increase: text b38, p=0.03. As to the method: A high-intensity exercise protocol was designed as a double-blind, crossover study to assess the influence of D-Ribose adaptation to physical stress. Specifically, D-Ribose and a control (Dextrose) were administered on separate subjects at a dosage of ten grams per day (10 g/day). A variety of physiological parameters were measured in the subjects administered D-Ribose (DR) supplementation (i.e., the DR subjects) versus the subjects administered Dextrose (DEX) supplementation (i.e., the DEX subjects). To test D-ribose for adaptation, the twenty-six (26) adult subjects were further divided into two subgroups based on their fitness level (i.e., peak oxygen uptake (VO2 max) results. The first subgroup comprised subjects with higher VO2 max results (i.e., the “Fit Subgroup”) and the second subgroup comprised subjects with lower VO2 max results (i.e., the “Unfit Subgroup”). The Unfit Subgroup consisted of six (6) females and seven (7) males. The average age of the Unfit Subgroup was 27.7±3.4 years and the average peak VO2 of the Unfit Subgroup was 39.9±4.1 mL/kg/min. The Fit Subgroup consisted of four (4) females and nine (9) males. The average age of the Fit Subgroup was 27.6±3.5 year and the average peak VO2 of the Fit Subgroup was 52.2±4.3 mL/kg/min. The protocol of the double-blind crossover study involved an initial baseline assessment, followed by two separate day assessments after consuming either a DR or DEX supplement. Each exercise session entailed measurements of creatine kinase (CK), blood urea nitrogen (BUN), glucose, heart rate (HR), rate of perceived exertion (RPE), and power output (PO) measurements. Physiologic parameters were measured and hydration was provided to the subjects during the exercise session. The same protocol for testing and hydration protocol was followed for both DR subjects and DEX subjects. Blood samples were drawn from each subject via a venipuncture technique at the following time periods: • Ten (10) minutes before commencement of exercise; • Twenty (20) minutes after the commencement of and during exercise; • Forty (40) minutes after the commencement of and during exercise; • Sixty (60) minutes after the commencement of and during exercise; and • Twenty-four (24) hours after the conclusion of exercise (twenty-five (25) hours after the commencement of exercise). Blood glucose was measured at all of the above time points except at twenty-four (24) hours post-exercise. Creatine kinase and BUN levels were measured at the pre-exercise (−10 min.) point during the three (3) days of exercise and twenty-four (24) hours post-exercise following the third (last) exercise session. Heart rate was recorded using a Polar HR monitor. Blood glucose levels were measured using a Bayer glucose monitor. Blood lactate levels were measured by an AccuSport Lactate Analyzer. Creatine kinase and BUN were measured utilizing an Abaxis Piccolo analyzer. Power data from the time trial performance test was assessed with the Sports Medicine Industries (SMI) software package.

Test [2] is described as follows: Two-minute power test (time trial) on cycle ergometer after sixty-minute high-intensity exercise session, double-blind crossover study. The format is in vivo, human. Conditions: for Absolute mean power output change / Relative mean power output change: Table 4, mean (±SD); for Mean Power (W/kg BW): difference between day 1 and day 3, 10 g/day, mean ± SD. The protocol:
A high-intensity exercise protocol was designed as a double-blind, crossover study to assess the influence of D-Ribose adaptation to physical stress. Specifically, D-Ribose and a control (Dextrose) were administered on separate subjects at a dosage of ten grams per day (10 g/day). A variety of physiological parameters were measured in the subjects administered D-Ribose (DR) supplementation (i.e., the DR subjects) versus the subjects administered Dextrose (DEX) supplementation (i.e., the DEX subjects).
The subjects consisted of twenty-six (26) healthy individual (10 females, 16 males). Each subject was randomly categorized as a DR subject or a DEX subject for the administration of supplementation. Furthermore, each subject was required to maintain his or her normal diet during the study, as well as performing his or her normal daily activities without performing any additional separate exercise sessions not part of the study protocol.
To test D-ribose for adaptation, the twenty-six (26) adult subjects were further divided into two subgroups based on their fitness level (i.e., peak oxygen uptake (VO2 max) results. The first subgroup comprised subjects with higher VO2 max results (i.e., the “Fit Subgroup”) and the second subgroup comprised subjects with lower VO2 max results (i.e., the “Unfit Subgroup”). The Unfit Subgroup consisted of six (6) females and seven (7) males. The average age of the Unfit Subgroup was 27.7±3.4 years and the average peak VO2 of the Unfit Subgroup was 39.9±4.1 mL/kg/min. The Fit Subgroup consisted of four (4) females and nine (9) males. The average age of the Fit Subgroup was 27.6±3.5 year and the average peak VO2 of the Fit Subgroup was 52.2±4.3 mL/kg/min.
On the load days (i.e., the two (2) days prior to the exercise sessions), DR subjects consumed five grams (5 g) of DR mixed with either their food or in a self-selected beverage with lunch and an additional five grams (5 g) with dinner (i.e., between three to eight hours apart), while DEX subjects consumed five grams (5 g) of DEX mixed with either their food or in a self-selected beverage with lunch and an additional five grams (5 g) with dinner (i.e., between three to eight hours apart).
On the exercise session days (i.e., three (3) days following the load days), DR subjects ingested a standardized pre-exercise snack containing five grams (5 g) of DR at two (2) hours before the exercise session and five grams (5 g) of DR following the exercise session but before leaving the laboratory (i.e., within one hour following the exercise session), while DEX subjects ingested a standardized pre-exercise snack containing five grams (5 g) of DEX at two (2) hours before the exercise session and five grams (5 g) of DEX following the exercise session but before leaving the laboratory (i.e., within one hour following the exercise session). For both DR subjects and DEX subjects, the standardized snacks were self-selected but were based on the subjects' normal dietary habits. The snacks were consistent from day to day and consisted of one hundred seventy grams (170 g) of yogurt and two granola bars, along with the designated supplement. Subjects were asked to record their diets so that there would be consistency throughout the testing period. Following an exercise session, each subject ingested the final daily dose of five grams (5 g) before leaving the laboratory. Subjects also ingested two hundred milliliters (200 ml) of water at twenty (20) and forty (40) minutes of exercise to minimize the effects of dehydration, which can occur during periods of high-intensity exercise.
Each subject was randomly assigned to be a DR subject (for administration of DR supplementation) or a DEX subject (for administration of DEX supplementation). Apart from the supplementation provided to and consumed by the subject, the treatment protocols were identical. The specific treatment protocol (i.e., administration of supplementation and exercise sessions) is detailed in Table 1 below: […]

Here are results for two compounds from patent publication US20210227854A1, “USE OF D-RIBOSE TO ENHANCE ADAPTATION TO PHYSICAL STRESS” (Bioenergy Life Science, Inc., priority 2014, published 2021).

Turning to `O=C[C@H](O)[C@H](O)[C@H](O)CO` [DR, D-Ribose], in test [1] (Fit Subgroup), the “Change in CK levels, DR versus DEX” value is “No differences” and the “CK (u)” value is recorded as 40.0 ± 348.1 u. Moreover, in test [1] (Unfit Subgroup), the “CK (u)” value came to 10.3 ± 79.3 u and the “Creatine kinase levels, average increase” value was determined as 37.1±85.2 U. Moreover, in test [2] (Fit Subgroup), the “Average change in absolute peak power from Day 1 to Day 3” value (“Average change in absolute peak power” below) is 6.2±28.6 W; the “Average change in relative peak power from Day 1 to Day 3” value (“Average change in relative peak power” below) was determined as 0.15±0.41 W/kg BW; the “Relative and absolute mean power outputs, DR versus DEX treatments” value is “not different”; the “Absolute mean power output change” value is listed as 2.3 (17.1) W. In test [2] (Fit Subgroup), the “Relative mean power output change” value is given as 0.08 (0.39) W/kg BW and the “Mean Power (W/kg BW)” value is listed as 0.08 ± 0.31 W/kg BW. For the same compound, in test [2] (Unfit Subgroup), the “Average change in absolute peak power” value was determined as 26.8±40.8 W, the “Average change in relative peak power” value is recorded as 0.33+0.52 W/kg BW, the “Absolute mean power output change” value was 13.2 (24.2) W and the “Relative mean power output change” value is 0.17 (0.32) W/kg BW. The “Mean Power (W/kg BW)” value in test [2] (Unfit Subgroup) stood at 0.20 ± 0.32 W/kg BW. In addition, the “Difference between DR and DEX in the change of absolute mean power” value in test [2] (Unfit Subgroup, p=0.01) came out at 245%. For the same compound, the “Improvement in relative mean power over DEX” value in test [2] (Unfit Subgroup, p=0.04) is reported as 288%.

With `O=C[C@H](O)[C@@H](O)[C@H](O)[C@H](O)CO` [DEX, Dextrose, reference compound], the “CK (u)” value in test [1] (Fit Subgroup) is 12.1 ± 270 u. Also, in test [1] (Unfit Subgroup), the “CK (u)” value amounted to 124.5 ± 126.5 u and the “Creatine kinase levels, average increase” value is listed as 121.4±110.2 U. In test [2] (Fit Subgroup), the “Average change in absolute peak power” value came out at 3.31±25.8 W, the “Average change in relative peak power” value was −0.02+0.37 W/kg BW, the “Absolute mean power output change” value is 8.2 (27.7) W and the “Relative mean power output change” value was 0.07 (0.33) W/kg BW. The “Mean Power (W/kg BW)” value in test [2] (Fit Subgroup) is 0.07 ± 0.33 W/kg BW. Also, in test [2] (Unfit Subgroup), the “Average change in absolute peak power” value is given as −10.8±33.0 W, the “Average change in relative peak power” value is given as −0.09+0.51 W/kg BW, the “Absolute mean power output change” value is listed as −8.9 (22.4) W and the “Relative mean power output change” value is listed as −0.09 (0.29) W/kg BW. The “Mean Power (W/kg BW)” value in test [2] (Unfit Subgroup) is reported as −0.09 ± 0.31 W/kg BW.
